Measurements from the supplement of paper PMC11451515.

System: P12-Ichikawa
Test: cell viability relative to DMSO control; higher = less cytotoxic
Conditions: 48 h
Outline: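 Viability values are per-plate percentages of DMSO wells, with background from cell-free wells. Library compounds in DMSO were pin-dosed, in an 11-point threefold series from 47 μM to 0.79 nM, onto NOMO1 or SEM (500 cells/well) or P12-Ichikawa (1000 cells/well) leukemia cells in 1536-well plates (5 μl). Those cells had been adapted for at least four passages in each medium, and CellTiter-Glo One luminescence was read after 48 h at 37°C.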

[1] = HPLM + 10% dialyzed FBS, 0.000781 µM
[2] = HPLM + 10% dialyzed FBS, 0.00234 µM
[3] = HPLM + 10% dialyzed FBS, 0.00702 µM
[4] = HPLM + 10% dialyzed FBS, 0.0211 µM
[5] = HPLM + 10% dialyzed FBS, 0.0632 µM
[6] = HPLM + 10% dialyzed FBS, 0.19 µM
[7] = HPLM + 10% dialyzed FBS, 0.569 µM
[8] = HPLM + 10% dialyzed FBS, 1.71 µM
[9] = HPLM + 10% dialyzed FBS, 5.12 µM
[10] = HPLM + 10% dialyzed FBS, 15.4 µM
[11] = HPLM + 10% dialyzed FBS, 46.1 µM
[12] = RPMI 5 mM glucose + 10% FBS, 0.000781 µM
[13] = RPMI 5 mM glucose + 10% FBS, 0.00234 µM
[14] = RPMI 5 mM glucose + 10% FBS, 0.00702 µM
[15] = RPMI 5 mM glucose + 10% FBS, 0.0211 µM
[16] = RPMI 5 mM glucose + 10% FBS, 0.0632 µM
[17] = RPMI 5 mM glucose + 10% FBS, 0.19 µM
[18] = RPMI 5 mM glucose + 10% FBS, 0.569 µM
[19] = RPMI 5 mM glucose + 10% FBS, 1.71 µM
[20] = RPMI 5 mM glucose + 10% FBS, 5.12 µM
[21] = RPMI 5 mM glucose + 10% FBS, 15.4 µM
[22] = RPMI 5 mM glucose + 10% FBS, 46.1 µM
[23] = RPMI 5 mM glucose + 10% dialyzed FBS, 0.000781 µM
[24] = RPMI 5 mM glucose + 10% dialyzed FBS, 0.00234 µM
[25] = RPMI 5 mM glucose + 10% dialyzed FBS, 0.00702 µM
[26] = RPMI 5 mM glucose + 10% dialyzed FBS, 0.0211 µM
[27] = RPMI 5 mM glucose + 10% dialyzed FBS, 0.0632 µM
[28] = RPMI 5 mM glucose + 10% dialyzed FBS, 0.19 µM
[29] = RPMI 5 mM glucose + 10% dialyzed FBS, 0.569 µM
[30] = RPMI 5 mM glucose + 10% dialyzed FBS, 1.71 µM
[31] = RPMI 5 mM glucose + 10% dialyzed FBS, 5.12 µM
[32] = RPMI 5 mM glucose + 10% dialyzed FBS, 15.4 µM
[33] = RPMI 5 mM glucose + 10% dialyzed FBS, 46.1 µM

Structure (SMILES)	cell viability [1]	cell viability [2]	cell viability [3]	cell viability [4]	cell viability [5]	cell viability [6]	cell viability [7]	cell viability [8]	cell viability [9]	cell viability [10]	cell viability [11]	cell viability [12]	cell viability [13]	cell viability [14]	cell viability [15]	cell viability [16]	cell viability [17]	cell viability [18]	cell viability [19]	cell viability [20]	cell viability [21]	cell viability [22]	cell viability [23]	cell viability [24]	cell viability [25]	cell viability [26]	cell viability [27]	cell viability [28]	cell viability [29]	cell viability [30]	cell viability [31]	cell viability [32]	cell viability [33]
CN(C)c1ccc(C(=O)NCCCCCCC(=O)NO)cc1	107%	102%	114%	104%	110%	111%	102%	44%	1.14%	0.537%	1.62%	101%	104%	109%	110%	116%	108%	99.5%	46.9%	1.46%	0.517%	1.9%	94.9%	105%	113%	116%	122%	121%	98.6%	25.4%	1.41%	0.539%	1.68%
O=C(NC1CC1)c1cccc(-c2ccc3c(NC(=O)C4CC4)n[nH]c3c2)c1	109%	109%	108%	113%	114%	113%	112%	112%	95.2%	39.5%	13.1%	111%	114%	113%	127%	121%	124%	110%	113%	101%	43.5%	12.6%	110%	120%	118%	121%	118%	116%	114%	112%	102%	55.3%	24.5%
O=C1c2cccc(O)c2C(=O)c2c(O)cc(CO)cc21	97.1%	100%	99.9%	98.1%	92.7%	91.2%	95.2%	92.8%	91.9%	90.7%	93.4%	89.6%	90.1%	93.7%	98%	92.3%	97%	88.2%	97.1%	92.1%	96.5%	104%	91.1%	92.2%	91%	93.4%	91.8%	91.5%	89%	86.7%	88%	88.3%	91.3%
CN[C@@H](C)C(=O)N[C@H]1CCCC[C@H]2CC[C@@H](C(=O)N[C@@H](c3ccccc3)c3cn(CCCCc4ccc(CCCCn5cc([C@@H](NC(=O)[C@@H]6CC[C@@H]7CCCC[C@H](NC(=O)[C@H](C)NC)C(=O)N76)c6ccccc6)nn5)cc4)nn3)N2C1=O	103%	101%	99.3%	95.4%	102%	99.8%	94.8%	104%	96.3%	96.8%	94.7%	98.6%	104%	92%	106%	92.8%	99.7%	115%	97.9%	96.2%	97.1%	79.9%	90.8%	110%	94.7%	84.7%	93%	101%	97.3%	98%	92.1%	93.5%	72.9%
